The target in experiment [1] is T1, Protein farnesyltransferase (Homo sapiens, UniProt P49354+P49356). Description: Concentration required for the inhibitory activity against human Farnesyltransferase. Type of experiment: protein-complex assay.
Experiment [2] has as its target T1, Protein farnesyltransferase. Description: Inhibition of HDJ-2 farnesylation in PSN-1 cells. Type of experiment: functional, cell-based.
Experiment [3] shares this target. Description: (§1) Inhibition of FPP incorporation into biotinylated K-Ras-derived peptide by human farnesyl transferase with 5 nM ATP. Type of experiment: functional.
The target is the same in experiment [4]. Description: (§2) Inhibition of FPP incorporation into biotinylated K-Ras-derived peptide by human farnesyl transferase. Type of experiment: functional.
Experiment [5] has the same target. Description: Inhibition of FPP incorporation into biotinylated K-Ras-derived peptide by human farnesyl transferase 5 nM ATP. In kind it is functional.
For experiment [6] the target is unchanged. The description is as §2. Type of experiment: functional. The source holds these as a separate data set.
The target is the same in experiment [7]. The experiment is described as §1. In kind it is functional. This is another data set of the same source.
For experiment [8] the target is unchanged. The description is as §2. In kind it is functional. The source holds these as a separate data set.
Experiment [9] has the same target. Described as §1. In kind it is functional. The source holds these as a separate data set.
The target is the same in experiment [10]. Described as §2. In kind it is functional. The source holds these as a separate data set.
The target is the same in experiment [11]. Described as §1. In kind it is functional. This is another data set of the same source.
For experiment [12] the target is unchanged. Described as §2. Type of experiment: functional. The source holds these as a separate data set.
Experiment [13] has as its target Geranylgeranyl transferase type I (Homo sapiens, UniProt P49354+P53609). As to the kind of experiment: Inhibitory activity against human Geranylgeranyl transferase type I. In kind it is protein-complex assay.
Experiment [14] concerns the target T1, Protein farnesyltransferase. Description: Inhibition of HDJ-2 farnesylation in PSN-1 cells at without GGT1. Type of experiment: functional, cell-based.
Experiment [15] has the same target. As to the kind of experiment: Inhibition of HDJ-2 farnesylation in PSN-1 cells with 100 nM GGT1. Type of experiment: functional, cell-based.
The target is the same in experiment [16]. As to the kind of experiment: Inhibition of K-Ras farnesylation in PSN-1 cells without GGT1. In kind it is functional, cell-based.
For experiment [17] the target is unchanged. As to the kind of experiment: Inhibition of K-Ras farnesylation in PSN-1 cells with 100 nM GGT1. In kind it is functional, cell-based.

Usually IC50 stands for the concentration needed to halve the response being measured. Low readings indicate greater potency, high ones weaker potency. Consider `CC(C)N(Cc1ccncc1)C(=O)Cc1c(-c2ccccc2Cl)[nH]c2ccccc12`, for which, in experiment [1], the IC50 worked out at 46 nM. The same measure, in the same setting: the value for `CCCCn1c(-c2ccccc2)c(CC(=O)N(Cc2ccncc2)C(C)C)c2ccccc21` was over 50000 nM; that for `CC(C)N(Cc1ccncc1)C(=O)Cc1cn(Cc2cccc(Br)c2)c2ccccc12` was 2150 nM; that for `CC(C)N(Cc1ccncc1)C(=O)Cc1cn(Cc2ccccc2Br)c2ccccc12` was 572 nM. Molecule `N#CCCN(C(=O)Cc1c(-c2ccccc2)[nH]c2ccccc12)C1CC1` gave an IC50 in [1] of 123 nM. For `CC(C)N(Cc1ccncc1)C(=O)Cc1c(-c2cccc(Cl)c2)[nH]c2ccccc12`, in [1], the IC50 stood at 172 nM. In turn, `O=C(Cc1c(-c2ccccc2)[nH]c2ccccc12)N(Cc1ccncc1)C1CCC1` registered an IC50 in experiment [1] of 160 nM.

As for `CC(C#N)N(Cc1cccnc1)C(=O)Cc1c(-c2ccccc2)[nH]c2ccccc12` (stereo not given), the IC50 in [1] turned out to be 380 nM.

In the case of `CC(C)N(Cc1ccncc1)C(=O)Cc1cn(Cc2ccc(Br)cc2)c2ccccc12`, it took 1740 nM to reach half-maximal inhibition in experiment [1] (IC50). In turn, `Cc1ccccc1-c1[nH]c2ccccc2c1CC(=O)N(Cc1ccncc1)C(C)C` yielded an IC50 in experiment [1] of 31 nM. On the same count and under the same terms, the value for `COc1ccccc1-c1[nH]c2ccccc2c1CC(=O)N(Cc1ccncc1)C(C)C` was 1370 nM; that for `O=C(Cc1c(-c2ccccc2)[nH]c2ccccc12)N(Cc1cccnc1)C1CC1` was 45 nM; that for `CC(C)N(Cc1ccco1)C(=O)Cc1c(-c2ccccc2)[nH]c2ccccc12` was 241 nM. In [1], `O=C(Cc1c(-c2ccccc2)[nH]c2ccccc12)N(Cc1ccncc1)C1CCCC1` returned an IC50 of 4000 nM.

`O=C(Cc1c(-c2ccccc2)[nH]c2ccccc12)N(Cc1ccncc1)C1CC1` registered an IC50 in experiment [1] of 171 nM. Still for that read-out and setting: the value for `CC(C)N(Cc1ccncc1)C(=O)Cc1c(-c2ccc(Br)cc2)[nH]c2ccccc12` was 14400 nM. Molecule `CC[C@@H](C)N(Cc1ccncc1)C(=O)Cc1c(-c2ccccc2)[nH]c2ccccc12` displayed a 50% inhibitory concentration (IC50) in experiment [1] of 4590 nM.

Regarding `CC[C@H](C)N(Cc1ccncc1)C(=O)Cc1c(-c2ccccc2)[nH]c2ccccc12`, half-maximal inhibition in experiment [1] (IC50) was put at 77 nM. In the case of `CC(C)N(Cc1ccncc1)C(=O)Cc1c[nH]c2ccccc12`, the IC50 in [1] was over 50000 nM. The molecule `CC(C)N(Cc1cccnc1)C(=O)Cc1c(-c2ccccc2)[nH]c2ccccc12` returned an IC50 in experiment [1] of 58 nM.

Regarding `Cc1ccccc1-c1[nH]c2ccccc2c1CC(=O)N(CCC#N)C1CC1`, 712 nM corresponded to half-maximal inhibition in experiment [1] (IC50). In turn, `CCn1c(-c2ccccc2)c(CC(=O)N(Cc2ccncc2)C(C)C)c2ccccc21` gave an IC50 in experiment [1] of 3800 nM. In experiment [1], `CC(C)N(Cc1cnccn1)C(=O)Cc1c(-c2ccccc2)[nH]c2ccccc12` had an IC50 of 400 nM.

On to `Cn1c(-c2ccccc2)c(CC(=O)N(CCC#N)C2CC2)c2ccccc21`, for which the IC50 in [1] is 182 nM. In turn, `O=C(Cc1c(-c2ccccc2)[nH]c2ccccc12)N(Cc1cccnc1)C1CCC1` came in with an IC50 in experiment [1] of 44 nM. In the case of `CC(C)CN(Cc1ccccn1)C(=O)Cc1c(-c2ccccc2)[nH]c2ccccc12`, in experiment [1], inhibition was half-maximal at 1500 nM (IC50). As to `O=C(Cc1c(-c2ccccc2)[nH]c2ccccc12)N(Cc1cccnc1)Cc1cccnc1`, 2730 nM corresponded to half-maximal inhibition in experiment [1] (IC50). Take `CC(C)CN(Cc1cccnc1)C(=O)Cc1c(-c2ccccc2)[nH]c2ccccc12`: inhibition in experiment [1] was half-maximal at 2480 nM (IC50).

Usually EC50 stands for the concentration needed to bring the measured effect to its halfway point. A low value points to an effect from little substance. In [1], `Cc1ccccc1-c1c(CC(=O)N(Cc2ccncc2)C(C)C)c2ccccc2n1C` returned an IC50 of 12 nM. The molecule further returned an EC50 in experiment [2] of 1060 nM. `CCCn1c(-c2ccccc2)c(CC(=O)N(Cc2ccncc2)C(C)C)c2ccccc21` gave an IC50 in experiment [1] of 29900 nM. As to `CC(C)N(Cc1ccncc1)C(=O)Cc1c(-c2ccccc2)[nH]c2ccccc12`, in experiment [1], it took 41 nM to reach half-maximal inhibition (IC50).

As to `CCN(Cc1ccncc1)C(=O)Cc1c(-c2ccccc2)[nH]c2ccccc12`, the IC50 was found to be 106 nM in experiment [1]; 65 nM in [3]; 54 nM in experiment [4]; 20 nM in experiment [5]; 4000 nM in experiment [6]; 190 nM in experiment [7]. Besides, the IC50 in [8] is 250 nM; in experiment [9], 43 nM; in experiment [10] it was 230 nM; in experiment [11], 47 nM; in experiment [12] it was 230 nM; in experiment [13], over 20000 nM. Take `CC(C)N(Cc1ccncc1)C(=O)Cc1c(-c2ccccc2)n(C)c2ccccc12`: the IC50 in experiment [1] was found to be 15 nM. The EC50 in experiment [2] is 1330 nM; in experiment [14], 1980 nM; in experiment [15] it was 1000 nM; in experiment [16], over 30000 nM; in experiment [17] it was 1800 nM. Take `CC(C)N(Cc1ccnn1C)C(=O)Cc1c(-c2ccccc2)[nH]c2ccccc12`: the IC50 in experiment [1] came out at 245 nM. Molecule `CC(C)N(Cc1ccccn1)C(=O)Cc1c(-c2ccccc2)[nH]c2ccccc12` yielded an IC50 in experiment [1] of 684 nM. On the same count and under the same terms, with `CC(C)N(Cc1ccoc1)C(=O)Cc1c(-c2ccccc2)[nH]c2ccccc12` the figure was 110 nM; with `CC(C)N(Cc1ccn(C)n1)C(=O)Cc1c(-c2ccccc2)[nH]c2ccccc12`, 568 nM; with `CC(C)N(Cc1cnn(C)c1)C(=O)Cc1c(-c2ccccc2)[nH]c2ccccc12`, 527 nM. With `N#Cc1ccc(Cn2cncc2CN2CCN(C(=O)NC34CC5CC(CC(C5)C3)C4)CC2)cc1`, the IC50 in experiment [1] was 517 nM; in experiment [13], 0.2 nM. On to `CC(C)N(Cc1cncnc1)C(=O)Cc1c(-c2ccccc2)[nH]c2ccccc12`, for which the IC50 in experiment [1] worked out at 232 nM. For the molecule `O=C(Cc1c(-c2ccccc2)[nH]c2ccccc12)N(Cc1cccnc1)C1CCCC1`, the IC50 in experiment [1] was 11400 nM. Same read-out and setting: the value for `N#CCCN(C(=O)Cc1c(-c2ccccc2Cl)[nH]c2ccccc12)C1CC1` was 1630 nM.

Values taken from ChEMBL document CHEMBL1134005, “2-Arylindole-3-acetamides: FPP-competitive inhibitors of farnesyl protein transferase” (Bioorg Med Chem Lett, 2001).
